Measurements as given in patent US20260226006A1, “INDOLE COMPOUND, PREPARATION METHOD THEREFOR AND USE THEREOF” (SUZHOU MERNA THERAPEUTICS CO. LTD, priority 2023, published 2026).

Legend:
[1] = system: skin of hind limb toes of mice; experiment: Chemotherapeutic drug-induced mouse models with hand-foot syndrome (Example 23); type: in vivo, ICR mice; details: compound 2b 3% ointment topical or nicotinamide 100 mg/kg oral; for expression level of cytokine IL-8 in skin tissues of hind limb toes: capecitabine model; for thickening of the epidermal layer and the stratum corneum in the skin tissues (pathological staining) / swelling of the toes caused by the modeling drugs: capecitabine or docetaxel model; for swelling of the toes caused by the modeling drugs: once daily 16 days; for expression level of cytokine IL-6 in skin tissues of hind limb toes: docetaxel model
From the text: After adaptive feeding for 7 days, SPF-grade ICR mice (male, 5-6 weeks old, with a body weight of approximately 35 g) were randomly divided into groups, including a blank control group (6 mice), a capecitabine modeling group (6 mice), a docetaxel modeling group (6 mice), a capecitabine+compound 2b group (6 mice), a docetaxel+compound 2b group (6 mice), a capecitabine+nicotinamide group (6 mice), and a docetaxel+nicotinamide group (6 mice). The groups were respectively administered corresponding modeling drugs by oral gavage (capecitabine at 200 mg/kg and docetaxel at 25 mg/kg) once daily, and the blank control group was administered an equivalent volume of normal saline. After administration with the chemotherapeutic drugs for 2 weeks, the compound ointments (at a compound content of 3%) used in Example 22 were respectively applied topically in the groups, or nicotinamide was orally administered (100 mg/kg) once daily continuously for 16 days.
(§1) Measurement of the degree of swelling of toes: The degree of swelling of hind limb toes of the mice was measured using a toe swelling tester (KW-7C, Nanjing Calvin Biotechnology Co., Ltd.) before administration with the modeling drugs, after administration with the modeling drugs for 2 weeks, and before sacrifice, respectively. Before measurement, ankle joints of hind paws of the mice were marked at same positions before administration, after administration for 2 weeks, and before sacrifice. During measurement, water was properly located at the same level as the marked positions, and numerical values were recorded after becoming stable.
(§2) Pathological staining of skin tissues: Skin tissue samples were selected from hind limb toes of the mice and placed in 4% paraformaldehyde for fixation at room temperature for 4 hours. Then, the tissues were taken out and rinsed with running water for several hours. The samples were subjected to dehydration treatment with 70%, 80%, and 90% ethanol solutions, followed by treatment with a mixed solution of equal amounts of absolute alcohol and xylene for 15 minutes, and then permeabilized twice with a xylene solution for 15 minutes each time until the samples became transparent. The samples were placed in a mixture of half xylene and half paraffin for soaking for 15 minutes, and then, paraffin I and paraffin II were added for wax penetration for one hour, respectively. After embedding with paraffin, the samples were sectioned, baked, dewaxed, and hydrated. Then, the hydrated sections were placed in a hematoxylin solution (ZSGB-BIO, article No. 23041001) for staining for 3 minutes, and a differentiation solution of hydrochloric acid in ethanol was added for differentiation for 15 seconds. After rinsing with water, a Scott bluing solution (Servicebio, article No. 20230801) was added for bluing for 15 seconds. After rinsing with running water, the sections were stained with an eosin solution (Solarbio, article No. 33535) for 3 minutes, rinsed with running water, dehydrated, permeabilized, sealed, and inspected under a microscope.
(§3) Immunohistochemical staining: After baking, dewaxing, and hydration, paraffin sections of skin tissues of hind limb toes of the mice were subjected to antigen retrieval using a 0.2 M citric acid buffer solution (containing 1.534 g of citric acid, 3.1 g of sodium citrate, and 100 mL of distilled water, pH 4.7). Endogenous […] was removed using 3% hydrogen peroxide (Shandong Annjet High-Tech Disinfection Technology Co., Ltd., article No. 20290902), and the sections were incubated at room temperature for 10 minutes and then fully rinsed with a PBS buffer solution (containing 8 g of NaCl, 0.2 g of KCl, 1.44 g of Na2HPO4, and 1 M HCl, pH 7.4). The sections were permeabilized with 0.5% Triron-X-100 (AmyJet Scientific, article No. A-CSH436-100 mL), respectively permeabilized with mouse anti-IL-1β and rabbit IL-8 for 10 minutes, and not permeabilized with rabbit anti-IL-6. […]

[2] = system: skin of hind limb toes of mice; experiment: Kinase inhibitor-induced mouse models with hand-foot skin reaction (Example 24); type: in vivo, ICR mice; details: for expression level of cytokine IL-1β in skin tissues of hind limb toes / thickening of the epidermal layer and the stratum corneum in the skin tissues (pathological staining) / swelling of the toes caused by the modeling drugs: compound 2b 3% ointment topical or nicotinamide 100 mg/kg oral; for thickening of the epidermal layer and the stratum corneum in the skin tissues (pathological staining) / swelling of the toes caused by the modeling drugs: sorafenib or osimertinib model; for swelling of the toes caused by the modeling drugs: once daily 16 days; for degree of swelling of hind limb toes / epidermal layer and stratum corneum in skin tissues of hind limb toes (pathological staining): modeling drug oral for 14 days; for skin appearance of hind limb toes: modeling for 14 days, sorafenib 100 mg/kg or osimertinib 10 mg/kg oral
From the text: After adaptive feeding for 7 days, SPF-grade ICR mice (male, 5-6 weeks old, with a body weight of approximately 35 g) were randomly divided into groups, including a blank control group (6 mice), a sorafenib modeling group (6 mice), an osimertinib modeling group (6 mice), a sorafenib+compound 2b group (6 mice), an osimertinib+compound 2b group (6 mice), a sorafenib+nicotinamide group (6 mice), and an osimertinib+nicotinamide group (6 mice). The groups were respectively administered corresponding modeling drugs by oral gavage (sorafenib at 100 mg/kg and osimertinib at 10 mg/kg) once daily, and the blank control group was administered an equivalent volume of normal saline. After administration with the chemotherapeutic drugs for 2 weeks, the compound ointments (at a compound content of 3%) used in Example 22 were respectively applied topically in the groups or nicotinamide was orally administered (100 mg/kg) once daily continuously for 16 days.
as §1, §2, §3

HaCat cells = experiment: m6A methylation level of drug-treated HaCat keratinocytes by nanopore sequencing (Example 14); type: cell-based, human; details: 50 nM drug, 24 hours
Procedure: 1*10^8 HaCat cells were seeded in culture dishes, into which 50 nM drugs (including sorafenib, capecitabine, docetaxel, and osimertinib) were added, respectively. The cells were cultured in an incubator containing 5% CO2 at 37° C. for 24 hours and washed with PBS after culture media were removed. Centrifugation was performed, the supernatant was discarded, and then, 400 μL of an RLT cell lysis buffer (QIAGEN, Cat. #79216) was added. A portion of samples were selected, into which 400 μL of 70% ethanol was added. The mixture was evenly stirred and then transferred to an RNeasy mini column, and RNA was extracted using an RNeasy mini kit (QIAGEN, Cat. #74104). 2 μL of an RNA sample was selected and dissolved in 98 μL of a 10 mM Tris-HCl buffer solution, and the absorbance at 260 nm was measured using a Nanodrop (Thermo Fisher Scientific) to determine the RNA concentration.
40 μg of an RNA sample was selected for enrichment of mRNA (PolyA+RNA) using an NEBNext Poly(A) mRNA magnetic isolation module (NEB, Cat. #E7490), and then, a 3′ end of the above enriched mRNA (PolyA+RNA) molecule was ligated with reverse transcription adapter RTA using a direct RNA sequencing kit (Oxford Nanopore Technologies, Cat. #SQK-RNA002). A reverse transcription reaction was performed with the mRNA (PolyA+RNA) molecule as a template to synthesize a complementary strand, a terminal end of the reverse transcription adapter RTA was ligated with a sequencing adapter (RNA adapter) to form a final sequencing library, and quantitative detection was performed using a Qubit™ dsDNA HS assay kit (Invitrogen, Cat. #LOT2133187).
After quality inspection of the library, the prepared sequencing library was loaded onto a PromethION flow cell chip (Oxford Nanopore Technologies, Cat. #FLO-MIN106D), and placed in a PromethION sequencer (Oxford Nanopore Technologies) for sequencing by selecting a matched sequencing mode. Basecalling was performed on sequencing data through guppy, and m6A methylation analysis was performed on original fast5 data.

| Structure (SMILES) | expression level of cytokine IL-8 in skin tissues of hind limb toes [1] | thickening of the epidermal layer and the stratum corneum in the skin tissues (pathological staining) [1] | swelling of the toes caused by the modeling drugs [1] | expression level of cytokine IL-6 in skin tissues of hind limb toes [1] | expression level of cytokine IL-1β in skin tissues of hind limb toes ([2]; osimertinib model) | expression level of cytokine IL-1β in skin tissues of hind limb toes ([2]; sorafenib model) | thickening of the epidermal layer and the stratum corneum in the skin tissues (pathological staining) [2] | swelling of the toes caused by the modeling drugs [2] | m6A methylation level of HaCat cells, increase compared with blank control group (HaCat cells) | degree of swelling of hind limb toes [2] | epidermal layer and stratum corneum in skin tissues of hind limb toes (pathological staining) [2] | skin appearance of hind limb toes [2] | cytokine IL-1β in skin tissues of hind limb toes (immunohistochemistry) ([2]; sorafenib oral for 14 days) | cytokine IL-1β in skin tissues of hind limb toes (immunohistochemistry) ([2]; osimertinib oral for 14 days) |
| --- | --- | --- | --- | --- | --- | --- | --- | --- | --- | --- | --- | --- | --- | --- |
| NC(=O)c1cccnc1 [Nicotinamide, nicotinamide] | does not have a significant impact | mildly alleviates | not observed that oral administration of the nicotinamide at 100 mg/kg significantly alleviates the swelling | does not have a significant impact | does not have a significant impact | does not have a significant impact | does not significantly alleviate | not observed that oral administration of the nicotinamide at 100 mg/kg significantly alleviates the swelling |  |  |  |  |  |  |
| CNC(=O)c1cc(Oc2ccc(NC(=O)Nc3ccc(Cl)c(C(F)(F)F)c3)cc2)ccn1 [Sorafenib, sorafenib, reference compound] |  |  |  |  |  |  |  |  | 5.05 times | significant swelling | significantly thickened | obvious erythema and rhagades | significantly increased |  |
| NC(=O)[C@H]1CCCc2c1[nH]c1ccc(Cl)cc21 [Compound 2b, (S)-6-chloro-2,3,4,9-tetrahydro-1H-carbazole-1-carboxamide] | significantly decrease | effectively alleviate | significantly alleviate | significantly decrease | significantly decrease | significantly decrease | effectively alleviate | effectively alleviate |  |  |  |  |  |  |
| C=CC(=O)Nc1cc(Nc2nccc(-c3cn(C)c4ccccc34)n2)c(OC)cc1N(C)CCN(C)C [Osimertinib, osimertinib, reference compound] |  |  |  |  |  |  |  |  | 5.13 times | significant swelling | significantly thickened | obvious erythema and rhagades |  | significantly increased |
